Measured values as given in patent US7544373B2, “Minocycline oral dosage forms for the treatment of acne” (Medicis Pharmaceutical Corporation, priority 2007, dated 2009).

Test: Repeat-dose primate toxicology studies
Type: in vivo

Structure (SMILES): CN(C)c1ccc(O)c2c1C[C@H]1C[C@H]3[C@H](N(C)C)C(O)=C(C(N)=O)C(=O)[C@@]3(O)C(O)=C1C2=O [minocycline]
- lowest exposure which yields adverse effects (4 weeks): ~15 µg/mL
- lowest exposure which yields adverse effects (13 weeks): ~7 µg/mL
